Reference: patent publication US20100105694A1, “SUBSTITUTED PYRAZINONE DERIVATIVES FOR USE AS A MEDICINE” (priority 2006, published 2010)
Read-outs that look alike come from different tables or passages of the source.

Tests used:
[1] = molecular target: T1, human adrenergic-α2C receptor (Homo sapiens, UniProt P18825); test: Radioligand binding experiment for α2C-adrenoceptor ([3H]raulwolscine, CHO cell membranes)
T1 construct: expressed in transfected cells; host or cells: CHO cells, stably transfected; membranes
T1 sequence (P18825 1-462): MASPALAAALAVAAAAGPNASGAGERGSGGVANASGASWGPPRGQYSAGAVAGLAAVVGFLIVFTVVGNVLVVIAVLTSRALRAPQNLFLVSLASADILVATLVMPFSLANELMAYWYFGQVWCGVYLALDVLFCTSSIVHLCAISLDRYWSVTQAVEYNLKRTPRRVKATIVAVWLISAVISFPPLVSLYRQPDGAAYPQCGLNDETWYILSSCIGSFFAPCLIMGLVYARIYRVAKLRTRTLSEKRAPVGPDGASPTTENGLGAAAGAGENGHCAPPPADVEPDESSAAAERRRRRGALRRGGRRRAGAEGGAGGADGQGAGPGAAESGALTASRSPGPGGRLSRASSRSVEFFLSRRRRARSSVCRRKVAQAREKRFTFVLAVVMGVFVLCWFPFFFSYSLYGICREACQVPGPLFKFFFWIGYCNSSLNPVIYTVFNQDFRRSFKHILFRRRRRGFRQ
Method: (§1) The interaction of a compound of Formula (I) with α2C-adrenoceptor receptors was assessed in in vitro radioligand binding experiments. In general, a low concentration of a radioligand with a high binding affinity for a particular receptor or transporter is incubated with a sample of a tissue preparation enriched in a particular receptor or transporter or with a preparation of cells expressing cloned human receptors in a buffered medium. During the incubation, the radioligand binds to the receptor or transporter. When equilibrium of binding is reached, the receptor bound radioactivity is separated from the non-bound radioactivity, and the receptor- or transporter-bound activity is counted. The interaction of the test compounds with the receptor is assessed in competition binding experiments. Various concentrations of the test compound are added to the incubation mixture containing the receptor- or transporter preparation and the radioligand. The test compound in proportion to its binding affinity and its concentration inhibits binding of the radioligand. The radioligand used for hα2A and hα2C receptor binding was [^3H]-raulwolscine.
(§2) CHO cells, stabile transfected with human adrenergic-α2A and α2C receptor cDNA, were cultured in Dulbecco's Modified Eagle's Medium (DMEM)/Nutrient mixture Ham's F12 (ratio 1:1) (Gibco, Gent-Belgium) supplemented with 10% heat inactivated fetal calf serum (Life Technologies, Merelbeke-Belgium) and antibiotics (100 IU/ml penicillin G, 100 μg/ml streptomycin sulphate, 110 μg/ml pyruvic acid and 100 μg/ml L-glutamine). One day before collection, cells were induced with 5 mM sodiumbutyrate. Upon 80-90% of confluence, cells were scraped in phosphate buffered saline without Ca^2+ and Mg^2+ and collected by centrifugation at 1500×g for 10 minutes. The cells were homogenised in Tris-HCl 50 mM using an Ultraturrax homogenizer and centrifuged for 10 minutes at 23,500×g. The pellet was washed once by resuspension and rehomogenization and the final pellet was resuspended in Tris-HCl, divided in 1 ml aliquots and stored at −70° C.
(§3) Membranes were thawed and re-homogenized in incubation buffer (glycylglycine 25 mM, pH 8.0). […] Filters were rinsed extensively with ice-cold rinsing buffer (Tris-HCl 50 mM pH 7.4). Filter-bound radioactivity was determined by scintillation counting in a Topcount (Packard, Meriden, Conn.) and results were expressed as counts per minute (cpm). Non-specific binding was determined in the presence of 1 μM oxymetazoline for the hα2A receptor and 1 μM spiroxatrine for hα2C receptors.
(§4) Data from assays in the presence of compound were calculated as a percentage of total binding measured in the absence of test compound. Inhibition curves, plotting percent of total binding versus the log value of the concentration of the test compound, were automatically generated, and sigmoidal inhibition curves were fitted using non-linear regression. The pIC50 values of test compounds were derived from individual curves.

5HT-Transporter = molecular target: T2, 5HT-Transporter (Homo sapiens, UniProt P31645); test: Binding experiment for the 5HT-transporter ([3H]paroxetine, human platelet membranes)
T2 construct: Human platelet membranes (Oceanix Biosciences Corporation, Hanover, Md., USA) were thawed; tissue Oceanix Biosciences Corporation; host or cells: human platelet membranes
Method: as §1
Human platelet membranes (Oceanix Biosciences Corporation, Hanover, Md., USA) were thawed, diluted in buffer (Tris-HCl 50 mM, 120 mM NaCl and 5 mM KCl) and quickly (max 3 s) homogenised with an Ultraturrax homogenizer. […] Incubation was stopped by rapid filtration of the incubation mixture over GF/B filters, pre-wetted with 0.1% polyethyleneamine, using a Filtermate196 harvester (Packard, Meriden, Conn.). Filters were rinsed extensively with ice-cold buffer and radioactivity on the filters was counted in a Topcount liquid scintillation counter (Packard, Meriden, Conn.). Data were expressed as cpm. Imipramine (at 1 μM final concentration) was used to determine the non-specific binding.
as §4

[2] = molecular target: T3, human adrenergic-α2A receptor (Homo sapiens, UniProt P08913); test: Radioligand binding experiment for hα2A receptor ([3H]raulwolscine, CHO cell membranes)
T3 construct: expressed in transfected cells; host or cells: CHO cells, stably transfected; membranes
T3 sequence (P08913 1-465): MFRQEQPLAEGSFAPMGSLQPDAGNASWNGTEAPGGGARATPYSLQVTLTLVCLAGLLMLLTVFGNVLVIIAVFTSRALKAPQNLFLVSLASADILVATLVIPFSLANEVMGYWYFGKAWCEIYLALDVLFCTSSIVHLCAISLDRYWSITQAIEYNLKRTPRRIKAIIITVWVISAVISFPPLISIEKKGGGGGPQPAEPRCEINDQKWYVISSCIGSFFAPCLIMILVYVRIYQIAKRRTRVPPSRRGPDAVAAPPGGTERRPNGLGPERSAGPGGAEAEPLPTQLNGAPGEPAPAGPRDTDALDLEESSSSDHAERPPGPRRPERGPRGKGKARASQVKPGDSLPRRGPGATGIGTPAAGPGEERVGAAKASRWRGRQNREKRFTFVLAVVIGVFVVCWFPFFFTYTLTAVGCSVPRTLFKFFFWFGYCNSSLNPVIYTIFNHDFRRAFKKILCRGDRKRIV
Method: as §1, §2, §3, §4

[3] = [3H]raulwolscine 1 nM, membranes of CHO cells transfected with human α2C receptor, read-out: h-α2C pIC50 (converted)
[4] = [3H]paroxetine 0.5 nM, read-out: h-5HTT pIC50 (converted)
[5] = [3H]raulwolscine 1 nM, membranes of CHO cells transfected with human α2A receptor, read-out: h-α2A pIC50 (converted)
[6] = h-5HTT pIC50, [3H]paroxetine 0.5 nM

T2 sequence (P31645 whole entry): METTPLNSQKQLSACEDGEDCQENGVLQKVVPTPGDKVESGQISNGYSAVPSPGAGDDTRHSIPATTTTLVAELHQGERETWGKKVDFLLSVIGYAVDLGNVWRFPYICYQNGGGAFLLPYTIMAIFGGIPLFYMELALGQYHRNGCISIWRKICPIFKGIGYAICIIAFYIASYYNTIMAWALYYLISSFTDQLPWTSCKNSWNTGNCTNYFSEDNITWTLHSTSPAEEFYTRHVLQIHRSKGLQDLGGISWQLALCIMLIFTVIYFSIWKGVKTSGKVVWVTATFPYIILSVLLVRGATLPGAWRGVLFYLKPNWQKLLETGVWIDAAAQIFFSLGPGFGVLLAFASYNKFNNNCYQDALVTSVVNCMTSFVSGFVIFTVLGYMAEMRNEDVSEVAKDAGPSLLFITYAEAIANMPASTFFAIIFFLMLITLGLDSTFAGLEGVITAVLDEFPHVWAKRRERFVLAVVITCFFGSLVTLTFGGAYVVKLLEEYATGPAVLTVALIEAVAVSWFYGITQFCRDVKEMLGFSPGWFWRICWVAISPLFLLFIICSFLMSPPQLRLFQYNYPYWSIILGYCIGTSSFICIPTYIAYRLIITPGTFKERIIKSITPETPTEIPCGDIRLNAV

In the case of CC(C)(C)OC(=O)NCCCn1ccnc(NC2CCN(CCc3ccccc3)CC2)c1=O [Compound 6-4], the IC50 [1, 3] is reported as 631 nM, the IC50 (5HT-Transporter; [4]) is reported as over 10000 nM and the IC50 [2, 5] is reported as 3160 nM.

With O=c1c(NC2CCN(CCc3ccccc3)CC2)nccn1CCN1CCCCC1 [Compound 6-5] the IC50 [1, 3] was 316 nM, the IC50 (5HT-Transporter; [4]) was over 10000 nM and the IC50 [2, 5] was 1580 nM.

For O=C1c2ccccc2C(=O)N1CCCn1ccnc(NC2CCN(CCc3ccccc3)CC2)c1=O [Compound 6-6], the IC50 [1, 3] was 158 nM, the IC50 (5HT-Transporter; [4]) was 1580 nM and the IC50 [2, 5] was 3980 nM.

O=c1c(NC2CCN(CCc3ccccc3)CC2)nccn1Cc1ccccc1Br [Compound 6-7] gave an IC50 [1, 3] of 398 nM, an IC50 (5HT-Transporter; [4]) of 5010 nM and an IC50 [2, 5] of 794 nM.

O=c1c(NC2CCN(CCc3ccccc3)CC2)nccn1Cc1cccc(Br)c1 [Compound 6-8] was tested, and the IC50 [1] was 398 nM, the IC50 (5HT-Transporter; [6]) was 5010 nM and the IC50 [2] was 1000 nM.

With O=c1c(NC2CCN(CCc3ccccc3)CC2)nccn1Cc1ccc(Br)cc1 [Compound 6-9] the IC50 [1, 3] was 316 nM, the IC50 (5HT-Transporter; [4]) was 6310 nM and the IC50 [2, 5] was 1260 nM.

In the case of NCc1ccc(Cn2ccnc(NC3CCN(CCCc4ccccc4)CC3)c2=O)cc1 [Compound 7-1], the IC50 [1, 3] is reported as 100 nM, the IC50 (5HT-Transporter; [4]) is reported as 794 nM and the IC50 [2, 5] is reported as 316 nM.

With CC(C)(C)OC(=O)NCCCn1ccnc(NC2CCN(CCCc3ccccc3)CC2)c1=O [Compound 7-2] the IC50 [1, 3] was 79.4 nM, the IC50 (5HT-Transporter; [4]) was 3160 nM and the IC50 [2, 5] was 794 nM.

CC(C)(C)OC(=O)NCc1ccc(Cn2ccnc(NC3CCN(CCCc4ccccc4)CC3)c2=O)cc1 [Compound 7-3] gave an IC50 [1, 3] of 398 nM, an IC50 (5HT-Transporter; [4]) of 1580 nM and an IC50 [2, 5] of 1580 nM.

In the case of O=c1c(NC2CCN(CCCc3ccccc3)CC2)nccn1CCN1CCCCC1 [Compound 7-4], the IC50 [1, 3] is reported as 126 nM, the IC50 (5HT-Transporter; [4]) is reported as over 10000 nM and the IC50 [2, 5] is reported as 1580 nM.

Work on O=C1c2ccccc2C(=O)N1CCCn1ccnc(NC2CCN(CCCc3ccccc3)CC2)c1=O [Compound 7-5] yielded an IC50 [1] of 20 nM, an IC50 (5HT-Transporter; [6]) of 1000 nM and an IC50 [2] of 501 nM.

For COC(=O)Cn1ccnc(NC2CCN(CCCc3ccccc3)CC2)c1=O [Compound 7-6], the IC50 [1, 3] was 794 nM, the IC50 (5HT-Transporter; [4]) was over 10000 nM and the IC50 [2, 5] was 3980 nM.

For O=c1[nH]ccnc1NC1CCN(CCCc2ccccc2)CC1 [Compound 7-7], the IC50 [1] was 794 nM, the IC50 (5HT-Transporter; [6]) was over 10000 nM and the IC50 [2] was 1580 nM.

CCCn1ccnc(NC2CCN(CCCc3ccccc3)CC2)c1=O [Compound 7-8] was tested, and the IC50 [1, 3] was 501 nM, the IC50 (5HT-Transporter; [4]) was 5010 nM and the IC50 [2, 5] was 794 nM.

For CC(C)(C)C(=O)Cn1ccnc(NC2CCN(CCCc3ccccc3)CC2)c1=O [Compound 7-10], the IC50 [1, 3] was 316 nM, the IC50 (5HT-Transporter; [4]) was over 10000 nM and the IC50 [2, 5] was 1260 nM.

For O=c1c(NC2CCN(CCCc3ccccc3)CC2)nccn1Cc1ccccc1Br [Compound 7-11], the IC50 [1, 3] was 398 nM, the IC50 (5HT-Transporter; [4]) was 2000 nM and the IC50 [2, 5] was 1580 nM.

O=c1c(NC2CCN(CCCc3ccccc3)CC2)nccn1Cc1cccc(Br)c1 [Compound 7-12] gave an IC50 [1, 3] of 501 nM, an IC50 (5HT-Transporter; [4]) of 2510 nM and an IC50 [2, 5] of 2000 nM.

With O=c1c(NC2CCN(CCCc3ccccc3)CC2)nccn1Cc1ccc(Br)cc1 [Compound 7-13] the IC50 [1, 3] was 501 nM, the IC50 (5HT-Transporter; [4]) was 1000 nM and the IC50 [2, 5] was 1580 nM.

With O=C(Cn1ccnc(NC2CCN(CCCc3ccccc3)CC2)c1=O)c1ccccc1 [Compound 7-14] the IC50 [1, 3] was 398 nM, the IC50 (5HT-Transporter; [4]) was 3980 nM and the IC50 [2, 5] was 501 nM.

With CSCCn1ccnc(NC2CCN(CCCc3ccccc3)CC2)c1=O [Compound 7-15] the IC50 [1, 3] was 398 nM, the IC50 (5HT-Transporter; [4]) was 3160 nM and the IC50 [2, 5] was 1000 nM.

For CN(CCc1ccccc1)C1CCN(c2nccn(CCCN3C(=O)c4ccccc4C3=O)c2=O)CC1 [Compound 8-1], the IC50 [1, 3] was 25.1 nM, the IC50 (5HT-Transporter; [4]) was 3160 nM and the IC50 [2, 5] was 1000 nM.

CN(CCc1ccccc1)C1CCN(c2nccn(CCC(=O)c3ccccc3)c2=O)CC1 [Compound 8-2] gave an IC50 [1, 3] of 63.1 nM, an IC50 (5HT-Transporter; [4]) of over 10000 nM and an IC50 [2, 5] of 316 nM.

NCc1ccc(Cn2ccnc(NC3CCN(CC(c4ccccc4)c4ccccc4)CC3)c2=O)cc1 [Compound 9-2] gave an IC50 [1, 3] of 631 nM, an IC50 (5HT-Transporter; [4]) of 2510 nM and an IC50 [2, 5] of 794 nM.

Work on CC(C)(C)OC(=O)NCCCn1ccnc(NC2CCN(CC(c3ccccc3)c3ccccc3)CC2)c1=O [Compound 9-3] yielded an IC50 [1, 3] of 316 nM, an IC50 (5HT-Transporter; [4]) of over 10000 nM and an IC50 [2, 5] of 3980 nM.
